Results: patent US20250026778A1 (TIUMBIO CO., LTD., priority 2021, published 2025)

biological target: T1, his-galectin-3 (Homo sapiens, UniProt P17931); test: TR-FRET assay (in vitro galectin-3 binding inhibitory activity test); conditions: Table 1; compound at 20 μM; 60 nM his-galectin-3, 15 nM biotin-ASF; read-out: % Inhibitory activity (at 20 μM)
T1 construct: purchased Abcam
Method in brief: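 Compound is premixed with his-galectin-3 (60 nM final), then biotin-ASF (15 nM), Tb anti-His antibody (2 nM) and streptavidin-d2 (20 nM) are added. After at least 3.5 hours at RT in HEPES/NaCl buffer with Tween 20 and BSA, TR-FRET is read at 615/665 nm. DMSO serves as the uninhibited control, ASF omission as background.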

T1 sequence (P17931 whole entry): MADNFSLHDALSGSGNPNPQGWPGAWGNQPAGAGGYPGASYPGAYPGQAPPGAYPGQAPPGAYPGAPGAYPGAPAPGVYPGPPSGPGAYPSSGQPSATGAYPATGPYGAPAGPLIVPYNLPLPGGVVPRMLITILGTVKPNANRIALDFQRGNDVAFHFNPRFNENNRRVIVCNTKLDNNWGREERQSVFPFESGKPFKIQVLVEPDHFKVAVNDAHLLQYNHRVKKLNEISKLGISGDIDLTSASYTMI

inhibition at 20 µM | SMILES
25 to 50% | OC[C@H]1O[C@]2(OCC[C@H]2NCc2cccc(Br)c2)[C@H](O)[C@@H](n2cc(-c3cc(F)c(F)c(F)c3)nn2)[C@H]1O [Compound A102, (4R,5S,7R,8R,9S,10R)-4-((3-bromobenzyl)amino)-7-(hydroxymethyl)-9-(4-(3,4,5-trifluorophenyl)-1H-1,2,3-triazol-1-yl)-1,6-dioxaspiro[4.5]decane-8,10-diol]
25 to 50% | O=C(N[C@@H]1CCO[C@]12O[C@H](CO)[C@H](O)[C@H](n1cc(-c3cc(F)c(F)c(F)c3)nn1)[C@H]2O)C1CCCC1 [Compound A107, N-((4R,5S,7R,8R,9S,10R)-8,10-dihydroxy-7-(hydroxymethyl)-9-(4-(3,4,5-trifluorophenyl)-1H-1,2,3-triazol-1-yl)-1,6-dioxaspiro[4.5]decan-4-yl)cyclopentancarboxamide]
50 to 75% | O=C(Cc1cccc(F)c1)N[C@@H]1CCO[C@]12O[C@H](CO)[C@H](O)[C@H](n1cc(-c3cc(F)c(F)c(F)c3)nn1)[C@H]2O [Compound A113, N-((4R,5S,7R,8R,9S,10R)-8,10-dihydroxy-7-(hydroxymethyl)-9-(4-(3,4,5-trifluorophenyl)-1H-1,2,3-triazol-1-yl)-1,6-dioxaspiro[4.5]decan-4-yl)-2-(3-fluorophenyl)acetamide]
< 25% | O=C(N[C@@H]1CCO[C@]12O[C@H](CO)[C@H](O)[C@H](n1cc(-c3cc(F)c(F)c(F)c3)nn1)[C@H]2O)C1(c2ccccc2)CC1 [Compound A114, N-((4R,5S,7R,8R,9S,10R)-8,10-dihydroxy-7-(hydroxymethyl)-9-(4-(3,4,5-trifluorophenyl)-1H-1,2,3-triazol-1-yl)-1,6-dioxaspiro[4.5]decan-4-yl)-1-phenylcyclopropanecarboxamide]
50 to 75% | O=C(Cc1ccc(Cl)cc1)N[C@@H]1CCO[C@]12O[C@H](CO)[C@H](O)[C@H](n1cc(-c3cc(F)c(F)c(F)c3)nn1)[C@H]2O [Compound A117, 2-(4-chlorophenyl)-N-((4R,5S,7R,8R,9S,10R)-8,10-dihydroxy-7-(hydroxymethyl)-9-(4-(3,4,5-trifluorophenyl)-1H-1,2,3-triazol-1-yl)-1,6-dioxaspiro[4.5]decan-4-yl)acetamide]
> 75% | COc1cccc(C(=O)N[C@@H]2CCO[C@]23O[C@H](CO)[C@H](O)[C@H](n2cc(-c4cc(F)c(F)c(F)c4)nn2)[C@H]3O)c1 [Compound A118, N-((4R,5S,7R,8R,9S,10R)-8,10-dihydroxy-7-(hydroxymethyl)-9-(4-(3,4,5-trifluorophenyl)-1H-1,2,3-triazol-1-yl)-1,6-dioxaspiro[4.5]decan-4-yl)-3-methoxybenzamide]
25 to 50% | O=C(N[C@@H]1CCO[C@]12O[C@H](CO)[C@H](O)[C@H](n1cc(-c3cc(F)c(F)c(F)c3)nn1)[C@H]2O)c1ccc(Oc2ccccc2)cc1 [Compound A120, N-((4R,5S,7R,8R,9S,10R)-8,10-dihydroxy-7-(hydroxymethyl)-9-(4-(3,4,5-trifluorophenyl)-1H-1,2,3-triazol-1-yl)-1,6-dioxaspiro[4.5]decan-4-yl)-4-phenoxybenzamide]

The remaining lines, values behind:

SMILES | inhibition at 20 µM
OC[C@H]1O[C@]2(OCC[C@H]2NCc2ccccn2)[C@H](O)[C@@H](n2cc(-c3cc(F)c(F)c(F)c3)nn2)[C@H]1O [Compound A98, (4R,5S,7R,8R,9S,10R)-7-(hydroxymethyl)-4-((pyridin-2-ylmethyl)amino)-9-(4-(3,4,5-trifluorophenyl)-1H-1,2,3-triazol-1-yl)-1,6-dioxaspiro[4.5]decane-8,10-diol] | < 25%
OC[C@H]1O[C@]2(CCCO2)[C@H](O)[C@@H](n2cc(-c3cc(F)c(F)c(F)c3)nn2)[C@H]1O [Compound A100, (5R,7R,8R,9S,10R)-7-(hydroxymethyl)-9-(4-(3,4,5-trifluorophenyl)-1H-1,2,3-triazol-1-yl)-1,6-dioxaspiro[4.5]decane-8,10-diol] | 25 to 50%
OC[C@H]1OC2(CCCC2)[C@H](O)[C@@H](n2cc(-c3cc(F)c(F)c(F)c3)nn2)[C@H]1O [Compound A101, (7R,8R,9S,10R)-7-(hydroxymethyl)-9-(4-(3,4,5-trifluorophenyl)-1H-1,2,3-triazol-1-yl)-6-oxaspiro[4.5]decane-8,10-diol] | 25 to 50%
CN(Cc1cccc(Cl)c1)[C@@H]1CCO[C@]12O[C@H](CO)[C@H](O)[C@H](n1cc(-c3cc(F)c(F)c(F)c3)nn1)[C@H]2O [Compound A103, (4R,5S,7R,8R,9S,10R)-4-((3-chlorobenzyl)(methyl)amino)-7-(hydroxymethyl)-9-(4-(3,4,5-trifluorophenyl)-1H-1,2,3-triazol-1-yl)-1,6-dioxaspiro[4.5]decane-8,10-diol] | < 25%
OC[C@H]1O[C@]2(OCC[C@H]2NCC2CCCC2)[C@H](O)[C@@H](n2cc(-c3cc(F)c(F)c(F)c3)nn2)[C@H]1O [Compound A104, (4R,5S,7R,8R,9S,10R)-4-((cyclopentylmethyl)amino)-7-(hydroxymethyl)-9-(4-(3,4,5-trifluorophenyl)-1H-1,2,3-triazol-1-yl)-1,6-dioxaspiro[4.5]decane-8,10-diol] | < 25%
O=C(CC1CCCC1)N[C@@H]1CCO[C@]12O[C@H](CO)[C@H](O)[C@H](n1cc(-c3cc(F)c(F)c(F)c3)nn1)[C@H]2O [Compound A108, 2-cyclopentyl-N-((4R,5S,7R,8R,9S,10R)-8,10-dihydroxy-7-(hydroxymethyl)-9-(4-(3,4,5-trifluorophenyl)-1H-1,2,3-triazol-1-yl)-1,6-dioxaspiro[4.5]decan-4-yl)acetamide] | 25 to 50%
OC[C@H]1O[C@@]2(CCCCS2)[C@H](O)[C@@H](n2cc(-c3cc(F)c(F)c(F)c3)nn2)[C@H]1O [Compound A109, (2R,3R,4S,5R,6R)-2-(hydroxymethyl)-4-(4-(3,4,5-trifluorophenyl)-1H-1,2,3-triazol-1-yl)-1-oxa-7-thiaspiro[5.5]undecane-3,5-diol] | < 25%
OC[C@H]1O[C@@]2(CCCNC2)[C@H](O)[C@@H](n2cc(-c3cc(F)c(F)c(F)c3)nn2)[C@H]1O [Compound A110, (2R,3R,4S,5R,6R)-2-(hydroxymethyl)-4-(4-(3,4,5-trifluorophenyl)-1H-1,2,3-triazol-1-yl)-1-oxa-8-azaspiro[5.5]undecane-3,5-diol] | < 25%
O=C(Cc1cccc2ccccc12)N[C@@H]1CCO[C@]12O[C@H](CO)[C@H](O)[C@H](n1cc(-c3cc(F)c(F)c(F)c3)nn1)[C@H]2O [Compound A111, N-((4R,5S,7R,8R,9S,10R)-8,10-dihydroxy-7-(hydroxymethyl)-9-(4-(3,4,5-trifluorophenyl)-1H-1,2,3-triazol-1-yl)-1,6-dioxaspiro[4.5]decan-4-yl)-2-(naphthalen-1-yl)acetamide] | 25 to 50%
O=C(Cc1ccccc1Cl)N[C@@H]1CCO[C@]12O[C@H](CO)[C@H](O)[C@H](n1cc(-c3cc(F)c(F)c(F)c3)nn1)[C@H]2O [Compound A112, 2-(2-chlorophenyl)-N-((4R,5S,7R,8R,9S,10R)-8,10-dihydroxy-7-(hydroxymethyl)-9-(4-(3,4,5-trifluorophenyl)-1H-1,2,3-triazol-1-yl)-1,6-dioxaspiro[4.5]decan-4-yl)acetamide] | 50 to 75%
O=C(Cc1ccc2ccccc2c1)N[C@@H]1CCO[C@]12O[C@H](CO)[C@H](O)[C@H](n1cc(-c3cc(F)c(F)c(F)c3)nn1)[C@H]2O [Compound A115, N-((4R,5S,7R,8R,9S,10R)-8,10-dihydroxy-7-(hydroxymethyl)-9-(4-(3,4,5-trifluorophenyl)-1H-1,2,3-triazol-1-yl)-1,6-dioxaspiro[4.5]decan-4-yl)-2-(naphthalen-2-yl)acetamide] | 50 to 75%
COc1cccc(CC(=O)N[C@@H]2CCO[C@]23O[C@H](CO)[C@H](O)[C@H](n2cc(-c4cc(F)c(F)c(F)c4)nn2)[C@H]3O)c1 [Compound A116, N-((4R,5S,7R,8R,9S,10R)-8,10-dihydroxy-7-(hydroxymethyl)-9-(4-(3,4,5-trifluorophenyl)-1H-1,2,3-triazol-1-yl)-1,6-dioxaspiro[4.5]decan-4-yl)-2-(3-methoxyphenyl)acetamide] | 50 to 75%

same assay, conditions: Table 3, found values; compound at 20 μM; 60 nM his-galectin-3, 15 nM biotin-ASF; read-out: % Inhibitory activity (at 20 μM)

inhibition at 20 µM | SMILES
48.1% | OC[C@H]1O[C@]2(CCCO2)[C@H](O)[C@@H](n2cc(-c3cc(F)c(F)c(F)c3)nn2)[C@H]1O [Compound A100, (5R,7R,8R,9S,10R)-7-(hydroxymethyl)-9-(4-(3,4,5-trifluorophenyl)-1H-1,2,3-triazol-1-yl)-1,6-dioxaspiro[4.5]decane-8,10-diol]
53.8% | O=C(Cc1ccccc1Cl)N[C@@H]1CCO[C@]12O[C@H](CO)[C@H](O)[C@H](n1cc(-c3cc(F)c(F)c(F)c3)nn1)[C@H]2O [Compound A112, 2-(2-chlorophenyl)-N-((4R,5S,7R,8R,9S,10R)-8,10-dihydroxy-7-(hydroxymethyl)-9-(4-(3,4,5-trifluorophenyl)-1H-1,2,3-triazol-1-yl)-1,6-dioxaspiro[4.5]decan-4-yl)acetamide]

same assay, conditions: read-out: % Inhibitory activity (at 20 μM), Table 1; compound at 20 μM; 60 nM his-galectin-3, 15 nM biotin-ASF

SMILES | inhibition at 20 µM
OC[C@H]1O[C@]2(OCC[C@H]2NCc2ccccc2)[C@H](O)[C@@H](n2cc(-c3cc(F)c(F)c(F)c3)nn2)[C@H]1O [Compound A105, (4R,5S,7R,8R,9S,10R)-4-(benzylamino)-7-(hydroxymethyl)-9-(4-(3,4,5-trifluorophenyl)-1H-1,2,3-triazol-1-yl)-1,6-dioxaspiro[4.5]decane-8,10-diol] | < 25%
O=C(Cc1cccc(Cl)c1)N[C@@H]1CCO[C@]12O[C@H](CO)[C@H](O)[C@H](n1cc(-c3cc(F)c(F)c(F)c3)nn1)[C@H]2O [Compound A106, 2-(3-chlorophenyl)-N-((4R,5S,7R,8R,9S,10R)-8,10-dihydroxy-7-(hydroxymethyl)-9-(4-(3,4,5-trifluorophenyl)-1H-1,2,3-triazol-1-yl)-1,6-dioxaspiro[4.5]decan-4-yl)acetamide] | 50 to 75%
O=C(N[C@@H]1CCO[C@]12O[C@H](CO)[C@H](O)[C@H](n1cc(-c3cc(F)c(F)c(F)c3)nn1)[C@H]2O)c1cccc(Cl)c1 [Compound A119, 3-chloro-N-((4R,5S,7R,8R,9S,10R)-8,10-dihydroxy-7-(hydroxymethyl)-9-(4-(3,4,5-trifluorophenyl)-1H-1,2,3-triazol-1-yl)-1,6-dioxaspiro[4.5]decan-4-yl)benzamide] | > 75%

same assay, conditions: read-out: % Inhibitory activity (at 20 μM), Table 3, found values; compound at 20 μM; 60 nM his-galectin-3, 15 nM biotin-ASF

SMILES | inhibition at 20 µM
O=C(N[C@@H]1CCO[C@]12O[C@H](CO)[C@H](O)[C@H](n1cc(-c3cc(F)c(F)c(F)c3)nn1)[C@H]2O)c1cccc(Cl)c1 [Compound A119, 3-chloro-N-((4R,5S,7R,8R,9S,10R)-8,10-dihydroxy-7-(hydroxymethyl)-9-(4-(3,4,5-trifluorophenyl)-1H-1,2,3-triazol-1-yl)-1,6-dioxaspiro[4.5]decan-4-yl)benzamide] | 93.7%
